Source: US6239130A, “Phosphodiesterase 4-inhibiting diazepinoindolones” (Warner-Lambert Company, priority 1997, dated 2001)

System: PDE4 enzyme of human origin
Test: PDE4-inhibiting activity on an enzyme preparation obtained from the U937 cell line
Assay type: biochemical
Procedure: In the case of the PDE4 enzymes, this value is compared with that of rolipram, a specific PDE4 inhibitor. […] Measurement of the enzyme activity of the different types of PDE, and especially of the PDE4 enzymes, is then carried out according to a method adapted from W. J. Thompson, ibidem.

Row | Structure (SMILES) | IC50 [nM]
1 | Cc1cc2c3c(c1)C(c1ccccc1)=NC(n1c(C)nc4cc(C(=O)OCCN5CCOCC5)ccc4c1=O)C(=O)N3CC2 (centres unmarked) [Example 10, 2-(4-morpholinyl)ethyl 2-methyl-3-(9-methyl-4-oxo-1-phenyl-3,4,6,7-tetrahydro-[1,4]diazepino-[6,7,1-hi]indol-3-yl)-4-oxo-3,4-dihydroquinazoline-7-carboxylate] | 183
2 | CC(=O)OCCOC(=O)c1ccc2c(=O)n(C3N=C(c4ccccc4)c4cc(C)cc5c4N(CC5)C3=O)c(C)nc2c1 (centres unmarked) [Example 10A, 2-acetoxyethyl 2-methyl-3-(9-methyl-4-oxo-1-phenyl-3,4,6,7-tetrahydro[1,4]diazepino[6,7,1-hi]indol-3-yl)-4-oxo-3,4dihydroquinazoline-7-carboxylate] | 108
3 | COCCOC(=O)c1ccc2c(=O)n(C3N=C(c4ccccc4)c4cc(C)cc5c4N(CC5)C3=O)c(C)nc2c1 (centres unmarked) [Example 10B, 2-Methoxyethyl 2-methyl-3-(9-methyl-4-oxo-1-phenyl-3,4,6,7-tetrahydro[1,4]diazepino[6,7,1-hi]indol-3-yl)-4-oxo-3,4-dihydroquinazoline-7-carboxylate] | 155
4 | Cc1cc2c3c(c1)C(c1ccccc1)=NC(n1c(C)nc4cc(C(=O)OCCO)ccc4c1=O)C(=O)N3CC2 (centres unmarked) [Example 10C, 2-Hydroxyethyl 2-methyl-3-(9-methyl-4-oxo-1-phenyl-3,4,6,7-tetrahydro[1,4]diazepino[6,7,1-hi]indol-3-yl)-4-oxo-3,4-dihydroquinazoline-7-carboxylate] | 81
5 | Cc1cc2c3c(c1)C(c1ccccc1)=NC(n1c(C)nc4cc(C(=O)OC[C@@H](O)CO)ccc4c1=O)C(=O)N3CC2 (stereo partly drawn) [Example 10D, 1-(2S)-glyceryl 2-methyl-3-(9-methyl-4-oxo-1-phenyl-3,4,6,7-tetrahydro[1,4]diazepino[6,7,1-hi]indol-3-yl)-4-oxo-3,4-dihydroquinazoline-7-carboxylate] | 42
6 | Cc1cc2c3c(c1)C(c1ccccc1)=NC(n1c(C)nc4cc(C(=O)OCC(O)CN5CCOCC5)ccc4c1=O)C(=O)N3CC2 (centres unmarked) [Example 10E, 2-hydroxy-3-morpholin-4-ylpropyl 2-methyl-3-(9-methyl-4-oxo-1-phenyl-3,4,6,7-tetrahydro[1,4]diazepino[6,7,1-hi]indol-3-yl)-4-oxo-3,4-dihydroquinazoline-7-carboxylate] | 75
7 | Cc1cc2c3c(c1)C(c1ccccc1)=NC(n1c(C)nc4cc(CO)ccc4c1=O)C(=O)N3CC2 (centres unmarked) [Example 11, 3-(7-hydroxymethyl-2-methyl-4-oxo-4H-quinazolin-3-yl)-9-methyl-1-phenyl-6,7-dihydro-3H-[1,4]diazepino[6,7,1-hi]indol-4-one] | 79
8 | Cc1cc2c3c(c1)C(c1ccccc1)=N[C@@H](n1c(C)nc4cccc(F)c4c1=O)C(=O)N3CC2 [Example 12] | 88
9 | Cc1cc2c3c(c1)C(c1ccccc1)=NC(n1c(C)nc4cccc(Cl)c4c1=O)C(=O)N3CC2 (centres unmarked) [Example 13, 3-(5-chloro-2-methyl-4-oxo-4H-quinazolin-3-yl)-9-methyl-1-phenyl-6,7-dihydro-3H-[1,4]diazepino-[6,7,1-hi]indol-4-one] | 83
10 | CCOC(=O)c1nc2ccccc2c(=O)n1C1N=C(c2ccccc2)c2cc(C)cc3c2N(CC3)C1=O (centres unmarked) [Example 14, ethyl 3-(9-methyl-4-oxo-1-phenyl-3,4,6,7-tetrahydro-[1,4]diazepino[6,7,1-hi]indol-3-yl)-4-oxo-3,4-dihydroquinazoline-2-carboxylate] | 310
11 | CCOC(=O)c1nc2cccc(Cl)c2c(=O)n1C1N=C(c2ccccc2)c2cc(C)cc3c2N(CC3)C1=O (centres unmarked) [Example 15, Ethyl 5-chloro-3-(9-methyl-4-oxo-1-phenyl-3,4,6,7-tetrahydro-[1,4]diazepino[6,7,1-hi]indol-3-yl)-4oxo-3,4-dihydroquinazoline-2-carboxylate] | 82
12 | CCOC(=O)Cc1nc2ccccc2c(=O)n1C1N=C(c2ccccc2)c2cc(C)cc3c2N(CC3)C1=O (centres unmarked) [Example 16, Ethyl [3-(9-methyl-4-oxo-1-phenyl-3,4,6,7-tetrahydro-[1,4]diazepino[6,7,1-hi]indol-3-yl)-4-oxo-3,4-dihydro-2-quinazolinyl]acetate] | 260
13 | COCc1nc2ccccc2c(=O)n1C1N=C(c2ccccc2)c2cc(C)cc3c2N(CC3)C1=O (centres unmarked) [Example 17A, 9-Methyl-3-(2-methyloxymethyl-4-oxo-4H-quinazolin-3-yl)-1-phenyl-6,7-dihydro-3H-[1,4]diazepino[6,7,1-hi]indol-4-one] | 137
14 | Cc1cc2c3c(c1)C(c1ccccc1)=NC(n1c(CO)nc4ccccc4c1=O)C(=O)N3CC2 (centres unmarked) [Example 17B, 9-Methyl-3-(2-hydroxymethyl-4-oxo-4H-quinazolin-3-yl)-1-phenyl-6,7-dihydro-3H-[1,4]diazepino[6,7,1-hi]indol-4-one] | 221
15 | Cc1cc2c3c(c1)C(c1ccccc1)=NC(n1c(COC(=O)CCC(=O)O)nc4ccccc4c1=O)C(=O)N3CC2 (centres unmarked) [Example 17C, [3-(9-Methyl-4-oxo-1-phenyl-3,4,6,7-tetrahydro-[1,4]diazepino[6,7,1-hi]indol-3-yl)-4-oxo-3,4-dihydroquinazolin-2-yl]methyl hydrogen succinate] | 339
16 | COCCOCCOCC(=O)OCc1nc2ccccc2c(=O)n1C1N=C(c2ccccc2)c2cc(C)cc3c2N(CC3)C1=O (centres unmarked) [Example 17D, [3-(9-Methyl-4-oxo-1-phenyl-3,4,6,7-tetrahydro-[1,4]diazepino[6,7,1-hi]iondol-3-yl)-4-oxo-3,4-dihydroquinazolin-2-yl]methanol [2-(2-methoxyethoxy)ethoxy]acetate] | 286
17 | Cc1cc2c3c(c1)C(c1ccccc1)=NC(n1c(COC(=O)CCC(=O)NCCN4CCOCC4)nc4ccccc4c1=O)C(=O)N3CC2 (centres unmarked) [Example 17E, 3-(9-Methyl-4-oxo-1-phenyl-3,4,6,7-tetrahydro-[1,4]diazepino [6,7,1-hi]indol-3-yl)-4-oxo-3,4-dihydroquinazolin-2-ylmethyl N-(2-morpholin-4-ylethyl)succinamate] | 222
18 | Cc1cc2c3c(c1)C(c1ccccc1)=NC(n1c(COC(=O)CCC(=O)OCCN4CCOCC4)nc4ccccc4c1=O)C(=O)N3CC2 (centres unmarked) [Example 17F, 3-(9-Methyl-4-oxo-1-phenyl-3,4,6,7-tetrahydro-[1,4]diazepino[6,7,1-hi]indol-3-yl)-4-oxo-3,4-dihydroquinazolin-2-ylmethyl 2-morpholin-4-ylethyl succinnate] | 147
19 | COC(=O)[C@H](CCCCNC(=O)OC(C)(C)C)NC(=O)CCC(=O)OCc1nc2ccccc2c(=O)n1C1N=C(c2ccccc2)c2cc(C)cc3c2N(CC3)C1=O (some centres unmarked) [Example 17G, Methyl 6-t-butoxycarbonylamino-2-{3-[3-(9-methyl-4-oxo-1-phenyl-3,4,6,7-tetrahydro-[1,4]diazepino[6,7,1-hi]indol-3-yl)-4-oxo-3,4-dihydroquinazolin-2-ylmethoxycarbonyl]propionylamino}hexanoate] | 516
20 | CCOC(=O)CCc1nc2ccccc2c(=O)n1C1N=C(c2ccccc2)c2cc(C)cc3c2N(CC3)C1=O (centres unmarked) [Example 17H, Ethyl 3-[3-(9-methyl 4oxo-1-phenyl-3,4,6,7-tetrahydro[1,4]diazepino[6,7,1-hi]indol-3-yl)-4-oxo-3,4-dihydroquinazolin-2-yl]propanoate] | 184
